# Source: patent US12629400B2, “Pharmaceutical compositions and methods for treating or preventing bacterial infections in humans and in animals” (LaGray, Inc., priority 2023, dated 2026)
# Where two headings read alike, the source gives them in different places.
# Assays:
# Type in all cases: cell-based
# Staphylococcus aureus = assay: Agar dilution antibacterial susceptibility (MIC)
# S. aureus (MRSA) = assay: Agar dilution antibacterial susceptibility (MIC); conditions: Staphylococcus aureus
# Enterococcus faecium = assay: Agar dilution antibacterial susceptibility (MIC)
# E. faecium (VRE) = assay: Agar dilution antibacterial susceptibility (MIC); conditions: Enterococcus faecium
# Streptococcus pneumoniae = assay: Agar dilution antibacterial susceptibility (MIC)
# S. pneumoniae (DRSP) = assay: Agar dilution antibacterial susceptibility (MIC); conditions: Streptococcus pneumoniae
# Streptococcus pyogenes = assay: Agar dilution antibacterial susceptibility (MIC)
# Hemophilus influenzae = assay: Agar dilution antibacterial susceptibility (MIC); conditions: Haemophilus influenzae
# Moraxella catarrhalis = assay: Agar dilution antibacterial susceptibility (MIC)
# Klebsiella pneumoniae = assay: Agar dilution antibacterial susceptibility (MIC)
# Chlamydia pneumoniae = assay: Agar dilution antibacterial susceptibility (MIC)
# Legionella pneumophila = assay: microbe, parasite or virus in culture
# Clostridium difficile = assay: Agar dilution antibacterial susceptibility (MIC); conditions: Clostridioides difficile
# [1] = S. aureus (MRSA), agar dilution, read-out: MIC
# [2] = E. faecium (VRE), agar dilution, read-out: MIC
# [3] = S. pneumoniae (DRSP), agar dilution, read-out: MIC
# [4] = Hemophilus influenzae, agar dilution, read-out: MIC
Structure (SMILES),"MIC (Staphylococcus aureus; agar dilution, read-out: MIC)",MIC (S. aureus (MRSA); [1]),"MIC (Enterococcus faecium; agar dilution, read-out: MIC)",MIC (E. faecium (VRE); [2]),"MIC (Streptococcus pneumoniae; agar dilution, read-out: MIC)",MIC (S. pneumoniae (DRSP); [3]),"MIC (Streptococcus pyogenes; agar dilution, read-out: MIC)",MIC (Hemophilus influenzae; [4]),"MIC (Moraxella catarrhalis; agar dilution, read-out: MIC)","MIC (Klebsiella pneumoniae; agar dilution, read-out: MIC)","MIC (Chlamydia pneumoniae; agar dilution, read-out: MIC)",MIC (Legionella pneumophila),MIC (Clostridium difficile),other results
"O=C(O)c1cn(C2CC2)c2cc(N3CCNCC3)c(F)cc2c1=O [Ciprofloxacin, ciprofloxacin]",0.06 µg/mL,32 µg/mL,0.5 µg/mL,2 µg/mL,0.13 µg/mL,2 µg/mL,0.5 µg/mL,0.15 µg/mL,0.25 µg/mL,0.06 µg/mL,0.12 µg/mL,0.06 µg/mL,–,–
"CN(C)c1ccc(O)c2c1C[C@H]1C[C@H]3[C@H](N(C)C)C(O)=C(C(N)=O)C(=O)[C@@]3(O)C(O)=C1C2=O [Minocycline, minocycline]",0.25 µg/mL,8 µg/mL,0.5 µg/mL,16 µg/mL,0.5 µg/mL,16 µg/mL,0.12 µg/mL,0.25 µg/mL,0.03 µg/mL,0.13 µg/mL,0.5 µg/mL,0.12 µg/mL,0.5 µg/mL,–
"CN[C@H](CC(C)C)C(=O)N[C@H]1C(=O)N[C@@H](CC(N)=O)C(=O)N[C@H]2C(=O)N[C@H]3C(=O)N[C@H](C(=O)N[C@H](C(=O)O)c4cc(O)cc(O)c4-c4cc3ccc4O)[C@H](O)c3ccc(c(Cl)c3)Oc3cc2cc(c3O[C@@H]2O[C@H](CO)[C@@H](O)[C@H](O)[C@H]2O[C@H]2C[C@](C)(N)[C@H](O)[C@H](C)O2)Oc2ccc(cc2Cl)[C@H]1O [Vancomycin, vancomycin]",–,–,–,–,–,–,–,–,–,–,–,0.06 µg/mL,0.5 µg/mL,MIC (Staphylococcus aureus): 0.13 µg/mL; MIC (S. aureus (MRSA); MRSA): 2 µg/mL; MIC (Enterococcus faecium): 1 µg/mL; MIC (E. faecium (VRE); VRE): 125 µg/mL; MIC (Streptococcus pneumoniae): 0.25 µg/mL; MIC (S. pneumoniae (DRSP)): 0.5 µg/mL; MIC (Streptococcus pyogenes): 0.06 µg/mL; MIC (Hemophilus influenzae): 0.06 µg/mL; MIC (Moraxella catarrhalis): 0.01 µg/mL; MIC (Klebsiella pneumoniae): 0.5 µg/mL; MIC (Chlamydia pneumoniae): 0.5 µg/mL
